Test results reported in US10864191B2, “5-HT6 receptor antagonists for use in the treatment of Alzheimer's disease with apathy as comorbidity” (H. Lundbeck A/S, priority 2016, dated 2020).

How the values were obtained:
h5-HT2B = h5-HT2B (Homo sapiens, UniProt P41595); conditions: cited from earlier work
[1] = tested on: donepezil-treated patients with moderate Alzheimer's disease; test: LADDER study: cognition (ADAS-cog) in donepezil-treated patients, incl. post-hoc analysis by NPI apathy score; type: in vivo, human
Method: The […] study that was conducted to assess the effect on cognitive performance of idalopirdine in donepezil-treated patients with moderate Alzheimer's disease. The […] study is registered with ClinicalTrials.gov, number NCT01019421 and is reported in Wilkinson D, et al. Safety and efficacy of idalopirdine, a 5-HT6 receptor antagonist, in patients with moderate Alzheimer's disease (LADDER): a randomised, double-blind, placebo-controlled phase 2 trial Lancet Neurol 2014; 13: 141-49. […] Patients were randomly assigned (1:1) to double-blind treatment with idalopirdine or placebo. The cognitive subscale of the 70-point, 11-item Alzheimer's Disease Assessment Scale (ADAS-cog) was rated at baseline and at weeks 4, 12, and 24. The ADAS-Cog scale is described in Rosen W G et al. A new scale for Alzheimer's disease. Am J Psychiatry 1984; 141: 1356-64. […] Subsequent to the analysis of the primary and secondary endpoints of the […] study as described in Example 2 above a post-hoc analysis was conducted. […] For the post-hoc analysis apathy was considered present if the apathy score as measured by Neuropsychiatric Inventory (NPI) was 1 or higher. The statistical analysis predicted a significant interaction at a 5% significance level between apathy score and treatment effect of idalopirdine on cognition as measured by the ADAS-Cog score (a negative score means less decline in cognitive skills and is thus desirable): […]

h5-HT1E = h5-HT1E (Homo sapiens, UniProt P28566); conditions: cited from earlier work
[2] = tested on: donepezil-treated patients with moderate Alzheimer's disease; conditions: add-on to donepezil; cited from earlier work
h5-HT1F = target: T1, h5-HT1F (Homo sapiens, UniProt P30939); conditions: cited from earlier work
T1 sequence (P30939 1-366): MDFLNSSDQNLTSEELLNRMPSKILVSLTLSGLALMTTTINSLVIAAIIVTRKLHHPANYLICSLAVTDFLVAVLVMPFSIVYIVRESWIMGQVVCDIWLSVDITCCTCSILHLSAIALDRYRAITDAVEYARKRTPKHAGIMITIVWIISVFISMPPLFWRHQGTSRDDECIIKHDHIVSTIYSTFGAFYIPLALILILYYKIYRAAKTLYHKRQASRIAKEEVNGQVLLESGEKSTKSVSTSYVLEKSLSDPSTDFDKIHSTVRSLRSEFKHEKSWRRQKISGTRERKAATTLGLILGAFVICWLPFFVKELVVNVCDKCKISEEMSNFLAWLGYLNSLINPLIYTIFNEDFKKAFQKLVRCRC

h5-HT1D = h5-HT1D (Homo sapiens, UniProt P28221); conditions: cited from earlier work
h5-HT7 = h5-HT7 (Homo sapiens, UniProt P34969); conditions: cited from earlier work
h5-HT1A = target: T2, h5-HT1A (Homo sapiens, UniProt P08908); conditions: cited from earlier work
T2 sequence (P08908 1-422): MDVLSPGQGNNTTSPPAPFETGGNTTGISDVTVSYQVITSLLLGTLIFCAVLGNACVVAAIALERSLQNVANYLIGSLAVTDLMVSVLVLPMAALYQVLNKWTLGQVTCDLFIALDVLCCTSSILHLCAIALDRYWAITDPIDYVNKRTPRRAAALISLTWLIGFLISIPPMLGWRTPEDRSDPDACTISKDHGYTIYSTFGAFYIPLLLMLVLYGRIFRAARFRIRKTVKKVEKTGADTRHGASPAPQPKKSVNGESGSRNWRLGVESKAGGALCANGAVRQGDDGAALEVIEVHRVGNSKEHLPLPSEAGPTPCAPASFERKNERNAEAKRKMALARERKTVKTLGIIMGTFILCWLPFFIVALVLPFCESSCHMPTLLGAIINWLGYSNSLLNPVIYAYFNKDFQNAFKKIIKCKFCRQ

h5-HT1B = h5-HT1B (Homo sapiens, UniProt P28222); conditions: cited from earlier work
h5-HT2A = h5-HT2A (Homo sapiens, UniProt P28223); conditions: cited from earlier work
[3] = tested on: donepezil-treated patients with moderate Alzheimer's disease; conditions: add-on to donepezil 10 mg per day, all patients; cited from earlier work
[4] = tested on: donepezil-treated patients with moderate Alzheimer's disease; test: LADDER study post-hoc analysis: Activities of Daily Living (ADCS-ADL) by NPI apathy score; type: in vivo, human
Method: Patients were randomly assigned (1:1) to double-blind treatment with idalopirdine or placebo. The same patient population as in Example 3 was analysed in a post-hoc analysis. For the post-hoc analysis apathy was considered present if the apathy score as measured by Neuropsychiatric Inventory (NPI) was 1 or higher. The statistical analysis predicted a significant interaction at a 5% significance level between apathy score and treatment effect of idalopirdine on Activities of Daily Living as measured by the ADCS-ADL score (Galasko et al; An inventory to assess activities of daily living for clinical trials in Alzheimer's Disease. Alzheimer Dis Assoc Disord. 1997;11(Suppl 2):22-32) (a positive score means an improvement): […]

Chain of h5-HT1B (P28222 whole entry): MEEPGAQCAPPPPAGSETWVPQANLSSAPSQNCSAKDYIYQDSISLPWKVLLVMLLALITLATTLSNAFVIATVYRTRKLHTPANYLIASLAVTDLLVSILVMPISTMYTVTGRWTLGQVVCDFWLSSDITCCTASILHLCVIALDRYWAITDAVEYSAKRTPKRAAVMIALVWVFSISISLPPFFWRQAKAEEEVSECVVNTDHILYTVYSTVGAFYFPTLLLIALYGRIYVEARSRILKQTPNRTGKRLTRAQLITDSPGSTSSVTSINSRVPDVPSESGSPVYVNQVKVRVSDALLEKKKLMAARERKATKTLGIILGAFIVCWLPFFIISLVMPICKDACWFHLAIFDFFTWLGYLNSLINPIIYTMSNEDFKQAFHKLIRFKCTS
Chain of h5-HT1E (P28566 whole entry): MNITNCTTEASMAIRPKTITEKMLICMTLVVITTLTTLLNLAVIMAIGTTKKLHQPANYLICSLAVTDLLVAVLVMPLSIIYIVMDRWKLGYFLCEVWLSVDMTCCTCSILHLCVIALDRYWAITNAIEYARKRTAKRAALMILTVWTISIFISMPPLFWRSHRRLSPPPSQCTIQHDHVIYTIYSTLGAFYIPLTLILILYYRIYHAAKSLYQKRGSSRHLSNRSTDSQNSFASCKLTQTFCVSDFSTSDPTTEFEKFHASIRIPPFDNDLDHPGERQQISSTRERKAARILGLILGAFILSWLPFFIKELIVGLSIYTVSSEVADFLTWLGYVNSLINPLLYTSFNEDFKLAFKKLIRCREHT
Chain of h5-HT7 (P34969 whole entry): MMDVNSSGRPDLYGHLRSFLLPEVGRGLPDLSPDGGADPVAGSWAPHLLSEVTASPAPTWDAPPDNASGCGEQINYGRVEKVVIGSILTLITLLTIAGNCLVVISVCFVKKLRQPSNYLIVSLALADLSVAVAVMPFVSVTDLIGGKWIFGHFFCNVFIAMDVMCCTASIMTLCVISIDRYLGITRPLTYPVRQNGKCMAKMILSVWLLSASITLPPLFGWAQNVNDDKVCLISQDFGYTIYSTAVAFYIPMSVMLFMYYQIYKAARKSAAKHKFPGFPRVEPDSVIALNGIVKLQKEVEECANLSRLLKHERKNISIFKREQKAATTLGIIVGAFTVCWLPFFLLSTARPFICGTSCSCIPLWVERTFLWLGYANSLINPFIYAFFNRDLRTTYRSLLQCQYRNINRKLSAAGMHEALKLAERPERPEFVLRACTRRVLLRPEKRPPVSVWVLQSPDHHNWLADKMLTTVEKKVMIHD
Chain of h5-HT2B (P41595 whole entry): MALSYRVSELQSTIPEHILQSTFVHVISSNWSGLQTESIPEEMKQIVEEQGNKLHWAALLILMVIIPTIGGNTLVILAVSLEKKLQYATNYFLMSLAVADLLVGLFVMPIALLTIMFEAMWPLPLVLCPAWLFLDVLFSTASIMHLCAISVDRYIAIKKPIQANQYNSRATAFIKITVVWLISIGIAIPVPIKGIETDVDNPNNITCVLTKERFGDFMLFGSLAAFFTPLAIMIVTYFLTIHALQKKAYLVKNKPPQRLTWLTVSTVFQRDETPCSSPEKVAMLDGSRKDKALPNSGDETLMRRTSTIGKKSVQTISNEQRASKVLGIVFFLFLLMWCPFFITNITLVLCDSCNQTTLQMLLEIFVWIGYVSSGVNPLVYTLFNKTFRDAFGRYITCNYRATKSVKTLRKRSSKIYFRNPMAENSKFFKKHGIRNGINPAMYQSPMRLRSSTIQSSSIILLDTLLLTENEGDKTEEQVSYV
Chain of h5-HT1D (P28221 whole entry): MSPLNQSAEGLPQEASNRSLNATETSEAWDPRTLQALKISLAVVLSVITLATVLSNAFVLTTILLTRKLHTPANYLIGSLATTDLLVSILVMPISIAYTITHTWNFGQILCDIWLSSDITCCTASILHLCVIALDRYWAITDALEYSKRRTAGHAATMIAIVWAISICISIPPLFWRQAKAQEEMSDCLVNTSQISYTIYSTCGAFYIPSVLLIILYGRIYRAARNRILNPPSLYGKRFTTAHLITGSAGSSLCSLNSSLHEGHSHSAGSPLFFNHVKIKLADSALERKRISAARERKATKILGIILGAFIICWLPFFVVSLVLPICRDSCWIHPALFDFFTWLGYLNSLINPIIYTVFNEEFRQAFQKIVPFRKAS
Chain of h5-HT2A (P28223 whole entry): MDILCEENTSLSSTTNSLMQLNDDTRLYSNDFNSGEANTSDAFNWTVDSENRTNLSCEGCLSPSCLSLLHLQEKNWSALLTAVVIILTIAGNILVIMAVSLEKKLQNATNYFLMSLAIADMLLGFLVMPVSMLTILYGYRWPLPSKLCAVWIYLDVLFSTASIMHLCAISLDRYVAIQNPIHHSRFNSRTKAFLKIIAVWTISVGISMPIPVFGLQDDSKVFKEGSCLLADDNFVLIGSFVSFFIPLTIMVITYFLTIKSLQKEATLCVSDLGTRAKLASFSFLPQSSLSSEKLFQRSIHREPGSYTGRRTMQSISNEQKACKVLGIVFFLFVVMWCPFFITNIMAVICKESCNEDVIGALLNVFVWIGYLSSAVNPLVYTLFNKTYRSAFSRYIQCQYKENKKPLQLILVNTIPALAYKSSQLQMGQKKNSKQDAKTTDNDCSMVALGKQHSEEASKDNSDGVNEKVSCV

Fc1ccc2c(CCNCc3cccc(OCC(F)(F)C(F)F)c3)c[nH]c2c1 [idalopirdine, N-(2-(6-fluoro-1H-indol-3-yl)ethyl)-3-(2,2,3,3-tetrafluoropropoxy)-benzylamine]
Ki (h5-HT2B): > 4.1 µM | Estimated change in effect on cognition at week 24 per unit increase in NPI apathy item score (Estimate) ([1]; ADAS-Cog score, negative = less decline, add-on to donepezil): −0.64 | Effect on cognition at week 24 in patients without apathy (Estimate) ([1]; ADAS-Cog, NPI apathy score 0, add-on to donepezil): −0.81 | Effect on cognition at week 24 in patients with apathy (Estimate) ([1]; ADAS-Cog, NPI apathy score 1 or higher, add-on to donepezil): −3.8 | Ki (h5-HT1E): > 4.6 µM | Effects on pre-specified secondary efficacy endpoints at week 24 [2]: None of the effects of idalopirdine on the pre-specified secondary endpoints were statistically significant | Ki (h5-HT1F): 2.4 µM | Ki (h5-HT1D): 2.6 µM | Ki (h5-HT7): > 10 µM | Ki (h5-HT1A): 2.3 µM | Ki (h5-HT1B): > 10 µM | Ki (h5-HT2A): 0.083 µM | Change from baseline in the ADAS-cog at week 24 (primary endpoint) versus placebo [3]: significantly better with idalopirdine than with placebo | Estimated change in effect on ADL at week 24 per unit increase in NPI apathy item score (Estimate) ([4]; ADCS-ADL score, positive = improvement, add-on to donepezil): 0.92 | Effect on ADL at week 24 in patients without apathy (Estimate) ([4]; ADCS-ADL, NPI apathy score 0, add-on to donepezil): 0.39 | Effect on ADL at week 24 in patients with apathy (Estimate) ([4]; ADCS-ADL, NPI apathy score 1 or higher, add-on to donepezil): 2.89
